Counter-ions that a name gives are not always drawn.
Key:
[1] = Shelf-life (t 90%) forecast of doxorubicin.HCl 2 mg/ml sterile water solution adjusted to pH 3.0; type: physicochemical; conditions: for Kobs × 10^3: observed
Experimental: The Arrhenius equation for the degradation process was calculated from the Kobs obtained from the different temperatures taken in account for the testing (table 11).
Applying the equation, the rate constants for the pseudo-first order reactions at 4° C., 8° C., 15° C. and 27° C. were calculated, together with the expected t90% at these temperatures.

[2] = pH-stability profile at 55° C. of doxorubicin.HCl solutions in sterile water, 5% dextrose, 0.9% saline; type: physicochemical
[3] = sterile water pH 3.0, 15° C., Arrhenius
[4] = sterile water pH 3.0, 27° C., 8 days
[5] = sterile water pH 3.0, 27° C., 14 days
[6] = sterile water pH 3.0, 27° C., 28 days
[7] = sterile water pH 3.0, 27° C., 32 days
[8] = sterile water pH 3.0, 27° C., 60 days
[9] = sterile water pH 3.0, 27° C., 90 days
[10] = sterile water pH 3.0, 35° C., 4 days
[11] = sterile water pH 3.0, 35° C., 8 days
[12] = sterile water pH 3.0, 35° C., 14 days
[13] = sterile water pH 3.0, 35° C., 32 days
[14] = sterile water pH 3.0, 45° C., 4 days
[15] = sterile water pH 3.0, 45° C., 8 days
[16] = sterile water pH 3.0, 45° C., 28 days
[17] = sterile water pH 3.0, 55° C., 4 days
[18] = sterile water pH 3.0, 55° C., 32 days

## COc1cccc2c1C(=O)c1c(O)c3c(c(O)c1C2=O)C[C@@](O)(C(=O)CO)C[C@@H]3O[C@H]1C[C@H](N)[C@H](O)[C@H](C)O1 [Doxorubicin.HCl, doxorubicin hydrochloride]
[1]; 2 mg/ml pH 3.0 aqueous solution
  commercially meaningful shelf-life (t90% forecasts): only if the product is stored in a refrigerator
[1]; sterile water pH 3.0, 4° C., Arrhenius
  K × 10^3 calculated: 0.019 1/days
[1]; sterile water pH 3.0, 8° C., Arrhenius
  K × 10^3 calculated: 0.038 1/days
[1]; [3]
  K × 10^3 calculated: 0.130 1/days
  t90%: 810 days
[1]; sterile water pH 3.0, 27° C., 0 days
  pH: 3.00
[1]; [4]
  Doxorubicin.HCl assay: 1.993 mg/mL
  pH: 2.95
[1]; [5]
  Doxorubicin.HCl assay: 1.988 mg/mL
  pH: 2.94
[1]; [6]
  Doxorubicin.HCl assay: 1.941 mg/mL
  pH: 2.94
[1]; [7]
  Doxorubicin.HCl assay: 1.962 mg/mL
  pH: 2.95
[1]; [8]
  Doxorubicin.HCl assay: 1.908 mg/mL
  pH: 2.96
[1]; [9]
  Doxorubicin.HCl assay: 1.850 mg/mL
  pH: 2.93
[1]; sterile water pH 3.0, 27° C., Arrhenius
  K × 10^3 calculated: 0.918 1/days
[1]; sterile water pH 3.0, 27° C.
  Kobs × 10^3: 0.850 1/days
[1]; sterile water pH 3.0, 35° C., 0 days
  pH: 3.00
[1]; [10]
  Doxorubicin.HCl assay: 1.985 mg/mL
  pH: 2.96
[1]; [11]
  Doxorubicin.HCl assay: 1.952 mg/mL
  pH: 2.98
[1]; [12]
  Doxorubicin.HCl assay: 1.889 mg/mL
  pH: 2.93
[1]; sterile water pH 3.0, 35° C., 28 days
  pH: 2.92
[1]; [13]
  Doxorubicin.HCl assay: 1.876 mg/mL
  pH: 2.92
[1]; sterile water pH 3.0, 35° C.
  Kobs × 10^3: 3.506 1/days
[1]; sterile water pH 3.0, 45° C., 0 days
  pH: 3.00
[1]; [14]
  Doxorubicin.HCl assay: 1.919 mg/mL
  pH: 2.97
[1]; [15]
  Doxorubicin.HCl assay: 1.851 mg/mL
  pH: 2.95
[1]; sterile water pH 3.0, 45° C., 14 days
  pH: 2.85
[1]; [16]
  Doxorubicin.HCl assay: 1.393 mg/mL
  pH: 2.90
[1]; sterile water pH 3.0, 45° C., 32 days
  pH: 2.92
[1]; sterile water pH 3.0, 45° C.
  Kobs × 10^3: 12.790 1/days
[1]; sterile water pH 3.0, 55° C., 0 days
  pH: 3.00
[1]; [17]
  Doxorubicin.HCl assay: 1.760 mg/mL
  pH: 2.94
[1]; sterile water pH 3.0, 55° C., 8 days
  pH: 2.90
[1]; sterile water pH 3.0, 55° C., 14 days
  pH: 2.80
[1]; [18]
  Doxorubicin.HCl assay: 0.730 mg/mL
  pH: 2.82
[1]; sterile water pH 3.0, 55° C.
  Kobs × 10^3: 49.340 1/days
[2]; 2 mg/ml, 55° C., all three media, ±0.2
  pH range of maximum stability: 3.0-3.5
[2]; 0.9% saline, Acetate pH 4.0, 55° C.
  Kobs × 10^3: 215.7 1/days
[2]; 0.9% saline, Acetate pH 5.0, 55° C.
  Kobs × 10^3: 301.2 1/days
[2]; 0.9% saline, Acetate pH 5.5, 55° C.
  Kobs × 10^3: 430.3 1/days
[2]; 0.9% saline, Formate pH 3.5, 55° C.
  Kobs × 10^3: 148.1 1/days
[2]; 0.9% saline, Glycine-HCl pH 2.0, 55° C.
  Kobs × 10^3: 362.4 1/days
[2]; 0.9% saline, Glycine-HCl pH 2.5, 55° C.
  Kobs × 10^3: 276.5 1/days
[2]; 0.9% saline, Glycine-HCl pH 3.0, 55° C.
  Kobs × 10^3: 133.2 1/days
[2]; 0.9% saline, pH 2.5 buffer, 55° C., 0 hours
  Doxorubicin.HCl % stability: 100.0%
[2]; 0.9% saline, pH 2.5 buffer, 55° C., 16 hours
  Doxorubicin.HCl % stability: 85.8%
[2]; 0.9% saline, pH 2.5 buffer, 55° C., 24 hours
  Doxorubicin.HCl % stability: 82.3%
[2]; 0.9% saline, pH 2.5 buffer, 55° C., 34 hours
  Doxorubicin.HCl % stability: 70.3%
[2]; 0.9% saline, pH 2.5 buffer, 55° C., 48 hours
  Doxorubicin.HCl % stability: 58.1%
[2]; 0.9% saline, pH 3.0 buffer, 55° C., 0 hours
  Doxorubicin.HCl % stability: 100.0%
[2]; 0.9% saline, pH 3.0 buffer, 55° C., 16 hours
  Doxorubicin.HCl % stability: 91.2%
[2]; 0.9% saline, pH 3.0 buffer, 55° C., 24 hours
  Doxorubicin.HCl % stability: 88.8%
[2]; 0.9% saline, pH 3.0 buffer, 55° C., 48 hours
  Doxorubicin.HCl % stability: 78.8%
[2]; 0.9% saline, pH 3.0 buffer, 55° C., 72 hours
  Doxorubicin.HCl % stability: 69.0%
[2]; 0.9% saline, pH 3.0 buffer, 55° C., 96 hours
  Doxorubicin.HCl % stability: 60.4%
[2]; 0.9% saline, pH 3.0 buffer, 55° C., 120 hours
  Doxorubicin.HCl % stability: 50.3%
[2]; 0.9% saline, pH 3.5 buffer, 55° C., 0 hours
  Doxorubicin.HCl % stability: 100.0%
[2]; 0.9% saline, pH 3.5 buffer, 55° C., 16 hours
  Doxorubicin.HCl % stability: 91.4%
[2]; 0.9% saline, pH 3.5 buffer, 55° C., 24 hours
  Doxorubicin.HCl % stability: 87.2%
[2]; 0.9% saline, pH 3.5 buffer, 55° C., 48 hours
  Doxorubicin.HCl % stability: 77.3%
[2]; 0.9% saline, pH 3.5 buffer, 55° C., 96 hours
  Doxorubicin.HCl % stability: 58.9%
[2]; 0.9% saline, pH 3.5 buffer, 55° C., 120 hours
  Doxorubicin.HCl % stability: 46.0%
[2]; 5% dextrose, Acetate pH 4.0, 55° C.
  Kobs × 10^3: 209.7 1/days
[2]; 5% dextrose, Acetate pH 5.0, 55° C.
  Kobs × 10^3: 273.1 1/days
[2]; 5% dextrose, Acetate pH 5.5, 55° C.
  Kobs × 10^3: 453.7 1/days
[2]; 5% dextrose, Formate pH 3.5, 55° C.
  Kobs × 10^3: 132.0 1/days
[2]; 5% dextrose, Glycine-HCl pH 2.0, 55° C.
  Kobs × 10^3: 323.8 1/days
[2]; 5% dextrose, Glycine-HCl pH 2.5, 55° C.
  Kobs × 10^3: 138.7 1/days
[2]; 5% dextrose, Glycine-HCl pH 3.0, 55° C.
  Kobs × 10^3: 100.5 1/days
[2]; 5% dextrose, pH 2.0 buffer, 55° C., 0 hours
  Doxorubicin.HCl % stability: 100.0%
[2]; 5% dextrose, pH 2.0 buffer, 55° C., 8 hours
  Doxorubicin.HCl % stability: 92.8%
[2]; 5% dextrose, pH 2.0 buffer, 55° C., 16 hours
  Doxorubicin.HCl % stability: 84.4%

Reference: US6632799B2, “Injectable ready-to-use solutions containing an antitumor anthracycline glycoside” (Pharmacia & Upjohn Company, priority 1985, dated 2003)
